From paper PMC5884906, “Single Administration of HBK-15—a Triple 5-HT1A, 5-HT7, and 5-HT3 Receptor Antagonist—Reverses Depressive-Like Behaviors in Mouse Model of Depression Induced by Corticosterone” (Molecular Neurobiology, 2017)

What was measured:
[1] = design: method as in unpublished results; conditions: ref unpublished results; cited from earlier work
5-HT2A receptors = target: 5-HT2A receptors; design: method as in unpublished results; conditions: not measured here; ref unpublished results; read-out: 5-HT2A receptor antagonism IC50; cited from earlier work
[2] = target: dopaminergic D2 receptors; design: method as in PMID 26554929; conditions: read-out: affinity for dopaminergic D2 receptors, Ki; cited from earlier work
[3] = target: serotonin 5-HT1A receptor; design: method as in PMID 26554929; conditions: previous experiments; read-out: 5-HT1A receptor antagonist IC50; cited from earlier work
[4] = target: T1, 5-HT3 receptors expressed in guinea pig ileum (Cavia porcellus, UniProt O70212); test: guinea pig ileum contractions induced by serotonin; type: biochemical; conditions: for type of antagonism at 5-HT3 receptors: from depression of serotonin maximum; for Kd: functional affinity, double-reciprocal plot, read-out: 5-HT3 receptor pK B ± S.E.M (converted)
T1 construct: A segment (15 cm) of male guinea pig ileum was excised from the small intestine; from tissue; host or cells: isolated male guinea pig ileum segments in an organ bath
T1 sequence (O70212 20-490): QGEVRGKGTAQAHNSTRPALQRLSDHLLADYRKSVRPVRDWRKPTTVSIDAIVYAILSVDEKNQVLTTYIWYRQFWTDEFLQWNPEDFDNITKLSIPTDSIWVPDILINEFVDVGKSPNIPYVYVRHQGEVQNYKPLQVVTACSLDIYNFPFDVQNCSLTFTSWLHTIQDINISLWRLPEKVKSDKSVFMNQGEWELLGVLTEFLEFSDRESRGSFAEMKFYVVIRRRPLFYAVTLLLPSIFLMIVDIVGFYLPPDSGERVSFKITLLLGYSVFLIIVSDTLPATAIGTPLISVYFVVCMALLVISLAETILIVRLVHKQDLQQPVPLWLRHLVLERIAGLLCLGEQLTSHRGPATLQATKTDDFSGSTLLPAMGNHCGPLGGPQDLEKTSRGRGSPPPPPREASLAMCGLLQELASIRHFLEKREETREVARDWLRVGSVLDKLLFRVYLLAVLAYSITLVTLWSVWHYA

mice = conditions: scopolamine-induced deficits; cited from earlier work
D2 receptors = target: D2 receptors; design: method as in unpublished results; conditions: not measured here; ref unpublished results; read-out: D2 receptor antagonism IC50; cited from earlier work
[5] = target: serotonergic 5-HT2A receptors; design: method as in PMID 26554929; conditions: read-out: affinity for serotonergic 5-HT2A receptors, Ki; cited from earlier work

Row | Structure (SMILES) | antipsychotic-like or cataleptogenic properties [1] | IC50 (5-HT2A receptors) [nM] | Ki [2] [nM] | IC50 [3] [nM] | type of antagonism at 5-HT3 receptors [4] | Kd [4] [nM] | effect on memory (mice) | IC50 (D2 receptors) [nM] | Ki [5] [nM]
1 | COc1ccccc1N1CCN(CCOCCOc2c(C)cccc2Cl)CC1.Cl [HBK-15, 1-[(2-chloro-6-methylphenoxy)ethoxyethyl]-4-(2-methoxyphenyl)piperazine hydrochloride] | did not show antipsychotic-like or cataleptogenic properties | 4460 | 54 | 19 | non-competitive interaction with 5-HT3 receptors | 43.6 | showed memory-enhancing properties | 68 | 109
2 | COc1ccccc1N1CCN(CCOCCOc2c(C)cccc2C)CC1.Cl [HBK-14, 1-[(2,6-Dimethylphenoxy)ethoxyethyl]-4-(2-methoxyphenyl)piperazine hydrochloride] | – | – | – | 64 | non-competitive antagonism | 11.2 | – | – | –
